Test systems include HCC-2998 colon; NCI-H23 lung; T-47D breast; PC-3 prostate; HOP-62 NSCLC; SF-539 CNS; NCI-H522 lung; HCT-15 colon; CAKI-1 renal; M14 melanoma; NCI/ADR-RES ovarian; SK-MEL-2 melanoma; K-562 leukemia; HT29 colon; KM12 colon; A549 NSCLC; SF-295 CNS; BT-549 breast; HL-60(TB) leukemia.
Assay in all cases: NCI tumour cell line growth inhibition, 48 h

“And” between values parts separate entries of the source, which are not always exact repeats. Identical values can stand only once.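 Five compound concentrations were applied to cells in 96-well plates for 48 hours; endpoints were derived by simple linear interpolation of the resulting dose-response curve. GI50 is the concentration that inhibits growth by half. TGI: concentration producing complete growth inhibition.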

Regarding `CN1CCc2cc(N)cc3c2C1Cc1ccc2c(c1-3)OCO2` (stereo not drawn), the TGI in the assay with HCC-2998 colon was 51.4 µM; in the assay on NCI-H23 lung, above 100 µM; in the assay on T-47D breast, above 100 µM; in the assay on PC-3 prostate it was above 100 µM; in the assay on HOP-62 NSCLC it was above 100 µM; in the assay on SF-539 CNS it was above 95 µM. Further, the TGI with NCI-H522 lung was 53.1 µM; with HCT-15 colon, above 100 µM; in the assay with CAKI-1 renal, above 100 µM; with M14 melanoma, above 100 µM; with NCI/ADR-RES ovarian it was above 83 µM; in the assay with SK-MEL-2 melanoma, above 100 µM. Besides, the TGI is above 80 µM with K-562 leukemia; above 100 µM in the assay with HT29 colon; above 100 µM in the assay on KM12 colon; above 100 µM in the assay on A549 NSCLC; above 100 µM in the assay on SF-295 CNS; above 100 µM in the assay on BT-549 breast. In the assay with HL-60(TB) leukemia, this compound gave a TGI above 75.7 µM.

`O=C(O)c1ccc(NNC(=O)c2cccc3c(=O)c4ccccc4[nH]c23)cc1`: the TGI in the assay with HCC-2998 colon, in the assay on NCI-H23 lung, in the assay on T-47D breast, in the assay on PC-3 prostate, with HOP-62 NSCLC and with SF-539 CNS was above 100 µM each time. Further, the TGI in the assay on NCI-H522 lung was 96 µM; in the assay on HCT-15 colon it was above 100 µM; in the assay with CAKI-1 renal it was above 100 µM; in the assay with M14 melanoma, above 100 µM; in the assay with NCI/ADR-RES ovarian, above 100 µM; in the assay on SK-MEL-2 melanoma, above 100 µM. In addition, the TGI with K-562 leukemia, in the assay on HT29 colon, in the assay on KM12 colon, with A549 NSCLC, with SF-295 CNS and with BT-549 breast was above 100 µM each time. Also, the TGI in the assay on HL-60(TB) leukemia was above 100 µM.

Consider `COc1ccc(C(SCC(N)C(=O)O)(c2ccc(OC)cc2)c2ccc(OC)cc2)cc1` (stereo not drawn), for which the TGI with HCC-2998 colon was found to be 17.4 µM; in the assay with NCI-H23 lung it was 20.6 µM; in the assay with T-47D breast it was 21.4 µM; in the assay on PC-3 prostate, 17.9 µM; with HOP-62 NSCLC, 17.8 µM; with SF-539 CNS, 17.6 µM. For the same compound, the TGI was 39.8 µM in the assay on NCI-H522 lung; 18.1 µM in the assay on HCT-15 colon; above 31.6 µM in the assay with CAKI-1 renal; 15.1 µM with M14 melanoma; 19.4 µM in the assay on NCI/ADR-RES ovarian; 18.4 µM in the assay on SK-MEL-2 melanoma. In addition, the TGI with K-562 leukemia is above 31.6 µM; in the assay on HT29 colon, 16.7 µM; in the assay on KM12 colon it was 16.2 µM; in the assay on A549 NSCLC it was above 31.6 µM; in the assay on SF-295 CNS it was 17.8 µM; in the assay with BT-549 breast, 28 µM. The TGI in the assay on HL-60(TB) leukemia is above 31.6 µM.

Regarding `COc1cccc(Nc2nc(N)nc(N)c2N=O)c1`, the TGI in the assay with HCC-2998 colon was 34.4 µM; in the assay on NCI-H23 lung it was 31.5 µM; in the assay with T-47D breast, 24.3 µM; in the assay with PC-3 prostate it was above 100 µM; in the assay on HOP-62 NSCLC, above 100 µM; in the assay with SF-539 CNS, 35.7 µM. In addition, the TGI in the assay with NCI-H522 lung was 29.5 µM; in the assay with HCT-15 colon, 47 µM; in the assay with CAKI-1 renal, 55.4 µM; with M14 melanoma, 86.6 µM; in the assay on NCI/ADR-RES ovarian it was 52.5 µM; in the assay with SK-MEL-2 melanoma, above 100 µM. In addition, the TGI is above 100 µM in the assay on K-562 leukemia; 75.3 µM in the assay with HT29 colon; above 100 µM with KM12 colon; above 100 µM with A549 NSCLC; 76.6 µM in the assay on SF-295 CNS; 96.8 µM with BT-549 breast. Besides, the TGI in the assay with HL-60(TB) leukemia was 79 µM.

Consider `CN(C)CCCN1c2ccccc2CCc2cc([N+](=O)[O-])ccc21`, for which the TGI was 34.1 µM and 25.2 µM with HCC-2998 colon; 54.1 µM and 36.7 µM in the assay on NCI-H23 lung; 43.9 µM and 37.7 µM in the assay on T-47D breast; 76.8 µM and 34.3 µM in the assay with PC-3 prostate; 48.6 µM and 30 µM in the assay with HOP-62 NSCLC; 74.5 µM and 31.4 µM with SF-539 CNS. The TGI in the assay on NCI-H522 lung was 60.6 µM and 31 µM; with HCT-15 colon it was 83.3 µM and 37.4 µM; with CAKI-1 renal, 59.7 µM and 32.2 µM; with M14 melanoma it was 38.1 µM and 31.1 µM; with NCI/ADR-RES ovarian, 82 µM and 39.8 µM; in the assay with SK-MEL-2 melanoma, 39.4 µM and 38.8 µM. In addition, the TGI is > 100 µM and 38.6 µM in the assay with K-562 leukemia; 41.6 µM and 32.8 µM in the assay on HT29 colon; 71 µM and 35.1 µM with KM12 colon; 70.2 µM and 37.7 µM with A549 NSCLC; 45.1 µM and 28.4 µM in the assay on SF-295 CNS; 45 µM and 31.3 µM with BT-549 breast. In the assay on HL-60(TB) leukemia, the TGI was 54 µM and 9.46 µM. Further, the GI50 in the assay on HL-60(TB) leukemia was 19.2 µM and 2.83 µM.

On to `O=C(CC(=O)N1N=C(N(c2ccccc2)c2ccccc2)CC1c1ccccc1)Nc1ccccc1` (stereo not drawn), for which the TGI in the assay on HCC-2998 colon, in the assay on NCI-H23 lung, in the assay with T-47D breast, in the assay on PC-3 prostate, in the assay with HOP-62 NSCLC and in the assay on SF-539 CNS was above 100 µM each time. In addition, the TGI in the assay with NCI-H522 lung, in the assay with HCT-15 colon, in the assay on CAKI-1 renal, with M14 melanoma, in the assay on NCI/ADR-RES ovarian and in the assay with SK-MEL-2 melanoma was above 100 µM each time. The TGI in the assay with K-562 leukemia, with HT29 colon, with KM12 colon, in the assay on A549 NSCLC, in the assay with SF-295 CNS and in the assay with BT-549 breast was above 100 µM throughout. In the assay on HL-60(TB) leukemia, the TGI is above 100 µM.

For the compound `O=c1c(=[n+]2ccc(=C([O-])c3ccccc3)cc2)/c(=N/S(=O)(=O)c2ccccc2)c(=O)c2ccccc12`, the TGI with HCC-2998 colon was determined as 23.7 µM; in the assay on NCI-H23 lung, 12 µM; in the assay with T-47D breast, 12.9 µM; in the assay on PC-3 prostate, 23.6 µM; in the assay on HOP-62 NSCLC it was 22.7 µM; with SF-539 CNS, 25.9 µM. The TGI with NCI-H522 lung was 18.3 µM; in the assay on HCT-15 colon, 28.2 µM; with CAKI-1 renal, 5.19 µM; in the assay with M14 melanoma, 23.9 µM; in the assay with NCI/ADR-RES ovarian it was 24.3 µM; in the assay on SK-MEL-2 melanoma it was 8.63 µM. Further, the TGI with K-562 leukemia turned out to be 9.98 µM; in the assay with HT29 colon, 28 µM; with KM12 colon it was 28.3 µM; with A549 NSCLC, 29.8 µM; with SF-295 CNS, 24.3 µM; in the assay on BT-549 breast, 18 µM. The TGI in the assay with HL-60(TB) leukemia was 4.95 µM.

`C=C(CN)CO[Si](C)(C)C(C)(C)C`: the TGI with HCC-2998 colon, in the assay with NCI-H23 lung, in the assay with T-47D breast, with PC-3 prostate, in the assay with HOP-62 NSCLC and with SF-539 CNS was above 100 µM each time. Besides, the TGI in the assay on NCI-H522 lung, in the assay with HCT-15 colon, in the assay with CAKI-1 renal, with M14 melanoma, with NCI/ADR-RES ovarian and in the assay on SK-MEL-2 melanoma was above 100 µM throughout. Further, the TGI with K-562 leukemia, with HT29 colon, with KM12 colon, with A549 NSCLC, in the assay on SF-295 CNS and in the assay with BT-549 breast was above 100 µM each time. For the same compound, the TGI in the assay with HL-60(TB) leukemia is above 100 µM.

Source of the values: PubChem BioAssay (NCI).
